For orientation: IC50 means the point on the concentration scale where inhibition reaches its midpoint.

Structures are written as SMILES.

Chain of Recombinant human JAK1 catalytic domain (P23458 850-1154): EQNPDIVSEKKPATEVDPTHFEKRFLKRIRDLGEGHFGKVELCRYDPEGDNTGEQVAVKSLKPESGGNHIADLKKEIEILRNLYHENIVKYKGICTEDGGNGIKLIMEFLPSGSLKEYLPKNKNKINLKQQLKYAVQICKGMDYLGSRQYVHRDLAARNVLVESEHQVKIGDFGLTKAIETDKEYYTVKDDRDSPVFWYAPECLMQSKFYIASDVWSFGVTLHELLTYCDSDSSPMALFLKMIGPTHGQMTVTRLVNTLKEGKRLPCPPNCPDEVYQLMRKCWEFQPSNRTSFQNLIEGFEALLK

This assay addresses Recombinant human JAK1 catalytic domain (Homo sapiens (Human), UniProt P23458). The assay is described as follows: JAK1 inhibition assay. As to conditions: semi-quantitative score. Format: biochemical. On the procedure: Plates were washed 6 times with 300 μL per well of a 75 mM phosphoric acid solution and the bottom of the plates was sealed. 40 μL/well of Microscint-20 was added, the top of the plates was sealed and readout was performed using the Topcount (Perkin Elmer). Kinase activity was calculated by subtracting counts per minute (cpm) obtained in the presence of a positive control inhibitor (10 μM staurosporine) from cpm obtained in the presence of vehicle. The ability of a test compound to inhibit this activity was determined as: Percentage inhibition=((cpm determined for sample with test compound present−cpm determined for sample with positive control inhibitor) divided by (cpm determined in the presence of vehicle−cpm determined for sample with positive control inhibitor))*100%.
Dose dilution series were prepared for the compounds enabling the testing of dose-response effects in the JAK1 assay and the calculation of the IC50 for each compound.
Take `O=C(Nc1nc2cccc(-c3cccc(CN4CCOCC4)c3)n2n1)C1CC1` [Compound 2, N-(5-(3-(morpholinomethyl)phenyl)-[1,2,4]triazolo[1,5-a]pyridin-2-yl)cyclopropanecarboxamide]: the half-inhibitory concentration (IC50) lay in the range of 101 to 500 nM.
With `O=C(Nc1nc2cccc(-c3cnc(N4CCCC4)nc3)n2n1)C1CC1` [Compound 4, N-(5-(2-(pyrrolidin-1-yl)pyrimidin-5-yl)-[1,2,4]triazolo[1,5-a]pyridin-2-yl)cyclopropanecarboxamide] the figure was 501 to 1000 nM; with `CN1CCN(c2ccc(-c3cccc4nc(NC(=O)C5CC5)nn34)cn2)CC1` [Compound 5, N-(5-(6-(4-methylpiperazin-1-yl)pyridin-3-yl)-[1,2,4]triazolo[1,5-a]pyridin-2-yl)cyclopropanecarboxamide], more than 1000 nM; with `O=C(Nc1nc2cccc(-c3ccc(N4CCOCC4)nc3)n2n1)C1CC1` [Compound 6, N-(5-(6-morpholinopyridin-3-yl)-[1,2,4]triazolo[1,5-a]pyridin-2-yl)cyclopropanecarboxamide], more than 1000 nM.
With `O=C(Nc1nc2cccc(-c3cnc(N4CCOCC4)nc3)n2n1)C1CC1` [Compound 8, N-(5-(2-morpholinopyrimidin-5-yl)-[1,2,4]triazolo[1,5-a]pyridin-2-yl)cyclopropanecarboxamide] the figure was more than 1000 nM.
For `O=C(Nc1nc2cccc(-c3cnc(N4CCCCC4)nc3)n2n1)C1CC1` [Compound 9, N-(5-(2-(piperidin-1-yl)pyrimidin-5-yl)-[1,2,4]triazolo[1,5-a]pyridin-2-yl)cyclopropanecarboxamide], the IC50 is more than 1000 nM.
For `O=C(Nc1ccc(-c2cccc3nc(NC(=O)C4CC4)nn23)cc1)c1ccccc1F` [Compound 34, N-(4-(2-(cyclopropanecarboxamido)-[1,2,4]triazolo[1,5-a]pyridin-5-yl)phenyl)-2-fluorobenzamide], the 50% inhibitory concentration (IC50) was 101 to 500 nM.
Next, `O=C(Nc1ccc(-c2cccc3nc(NC(=O)C4CC4)nn23)cc1)c1cnccn1` [Compound 35, N-(4-(2-(cyclopropanecarboxamido)-[1,2,4]triazolo[1,5-a]pyridin-5-yl)phenyl)pyrazine-2-carboxamide]: 101 to 500 nM.
With `O=C(Nc1nc2cccc(-c3ccc(OCc4cccc(OC(F)(F)F)c4)cc3)n2n1)C1CC1` [Compound 38, N-(5-(4-(3-(trifluoromethoxy)benzyloxy)phenyl)-[1,2,4]triazolo[1,5-a]pyridin-2-yl)cyclopropanecarboxamide], the 50% inhibitory concentration (IC50) is 101 to 500 nM.
With `O=C(Nc1ccc(-c2cccc3nc(NC(=O)C4CC4)nn23)cn1)c1ccccc1` [Compound 44, N-(5-(2-(cyclopropanecarboxamido)-[1,2,4]triazolo[1,5-a]pyridin-5-yl)pyridin-2-yl)benzamide] the figure was 501 to 1000 nM; with `O=C(Nc1ccc(-c2cccc3nc(NC(=O)C4CC4)nn23)cc1)C1CCCCC1` [Compound 45, N-(4-(2-(cyclopropanecarboxamido)-[1,2,4]triazo[1,5-a]pyridin-5-yl)phenyl)cyclohexanecarbox-amide], 101 to 500 nM.
With `O=C(Nc1nc2cccc(-c3ccc(-c4ccccc4)nc3)n2n1)C1CC1` [Compound 47, N-(5-(6-phenylpyridin-3-yl)-[1,2,4]triazolo[1,5-a]pyridin-2-yl)cyclopropanecarboxamide] the figure was 101 to 500 nM; with `COc1cccc(C(=O)Nc2ccc(-c3cccc4nc(NC(=O)C5CC5)nn34)cc2)c1` [Compound 53, N-(4-(2-(cyclopropanecarboxamido)-[1,2,4]triazolo[1,5-a]pyridin-5-yl)phenyl)-3-methoxybenzamide], 101 to 500 nM; with `O=C(Nc1ccc(-c2cccc3nc(NC(=O)C4CC4)nn23)cc1)c1ccccn1` [Compound 55, N-(4-(2-(cyclopropanecarboxamido)-[1,2,4]triazolo[1,5-a]pyridin-5-yl)phenyl)picolinamide], 101 to 500 nM.

(Values after patent US10206907B2, “Compounds useful for the treatment of degenerative and inflammatory diseases” (GALAPAGOS NV, priority 2008, dated 2019).)
